The source of these data is US8642594B2, “Substituted thieno[2,3-d]pyrimidines as HSP90 inhibitors” (Vernalis (R&D) Limited, priority 2003, dated 2014).

T1 sequence (P08238 whole entry): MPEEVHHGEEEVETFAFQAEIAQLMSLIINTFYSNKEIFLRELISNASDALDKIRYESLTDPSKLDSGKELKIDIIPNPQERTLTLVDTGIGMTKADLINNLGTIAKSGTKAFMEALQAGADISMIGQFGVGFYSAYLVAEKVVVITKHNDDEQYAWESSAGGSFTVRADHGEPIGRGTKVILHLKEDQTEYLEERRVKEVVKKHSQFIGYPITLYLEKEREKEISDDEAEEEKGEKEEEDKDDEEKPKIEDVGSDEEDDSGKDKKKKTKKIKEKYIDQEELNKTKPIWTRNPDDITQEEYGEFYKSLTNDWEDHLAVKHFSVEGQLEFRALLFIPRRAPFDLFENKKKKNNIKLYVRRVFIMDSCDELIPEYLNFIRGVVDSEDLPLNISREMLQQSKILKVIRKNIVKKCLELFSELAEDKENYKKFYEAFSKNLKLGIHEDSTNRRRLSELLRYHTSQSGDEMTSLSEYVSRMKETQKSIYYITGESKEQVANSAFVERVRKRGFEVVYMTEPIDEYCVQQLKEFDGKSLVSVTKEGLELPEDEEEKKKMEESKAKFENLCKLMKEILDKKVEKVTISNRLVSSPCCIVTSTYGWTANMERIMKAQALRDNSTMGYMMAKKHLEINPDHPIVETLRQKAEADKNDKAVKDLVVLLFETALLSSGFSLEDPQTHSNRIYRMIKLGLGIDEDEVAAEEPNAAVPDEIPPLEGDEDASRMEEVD

The first test concerns the target T1, Human full-length Hsp90 (Homo sapiens, UniProt P08238).
T1 construct: E. coli expressed human full-length HSP90 protein, purified >95%; made in house; host or cells: E. coli
The test can be described thus: Fluorescence polarization assay (competitive binding to HSP90, probe RBT0045864-FAM).
Details: not given
How it is done: Fluorescence Polarization Assay
Fluorescence polarization {also known as fluorescence anisotropy} measures the rotation of a fluorescing species in solution, where the larger molecule the more polarized the fluorescence emission. When the fluorophore is excited with polarized light, the emitted light is also polarized. The molecular size is proportional to the polarization of the fluorescence emission.
The fluoroscein-labelled probe—RBT0045864-FAM—
Test compound is added to the assay plate, left to equilibrate and the anisotropy measured again. Any change in anisotropy is due to competitive binding of compound to HSP90, thereby releasing probe.
Stored at room temperature. • 3) BSA (bovine serum albumen) 10 mg/ml (New England Biolabs #B9001S) • 4) 20 mM probe in 100% DMSO stock concentration. Stored in the dark at RT. Working concentration is 200 nM diluted in AR water and stored at 4° C. […] Protocol • 1) Add 100 μl 1× buffer to wells 11A and 12A (=FP BLNK) • 2) Prepare assay mix—all reagents are kept on ice with a lid on the bucket as the probe is light-sensitive.
This gives 2.5 mM {50×} stock cpd—assuming cpds 20 mM. • 4) Repeat for wells A2 to A10. Control in columns 11 and 12. • 5) Transfer 5 μl from row A to row B—not column 12. Mix well. • 6) Transfer 5 μl from row B to row C. […] Add 2 μl of 100 mM standard cpd to wells B12-H12 {is positive control} • 13) The Z′ factor is calculated from zero controls and positive wells.
Regarding `CCNC(=O)c1cc2c(-c3cc(OCCCN(C)C)c(Cl)cc3Cl)nc(N)nc2s1` [Example 255], the IC50 was under 10 µM. For `CCNC(=O)c1cc2c(-c3cc(OCCN(CC)CC)c(Cl)cc3Cl)nc(N)nc2s1` [Example 235, 2-Amino-4-[2,4-dichloro-5-(2-diethylamino-ethoxy)-phenyl]-thieno[2,3-d]pyrimidine-6-carboxylic acid ethyl amide], the IC50 was under 10 µM.

The same test, now with this note: fluorescence polarization assay, activity range; read-out: Hsp90 FP IC50.
Regarding `CCN(CC)CCOc1cc(-c2nc(N)nc3sc(C(=O)NC(C)C)cc23)c(Cl)cc1Cl` [Example 237, 2-Amino-4-[2,4-dichloro-5-(2-diethylamino-ethoxy)-phenyl]-thieno[2,3-d]pyrimidine-6-carboxylic acid isopropyl amide], the IC50 is under 10 µM.

Regarding `Cc1ccc(-c2nc(N)nc3sc(C(=O)NCC(N)=O)cc23)c(C)c1` [Example 95], the IC50 is under 10 µM. The same measure, in the same setting: with `C=CCNCc1ccc(C)c(-c2nc(N)nc3sc(C(=O)NCC)cc23)c1` [Example 209] the figure was under 10 µM. For the compound `Nc1nc(-c2ccc(Cl)cc2Cl)c2cc(C(=O)NCC(O)CO)sc2n1` (centres unmarked) [Example 128], the IC50 is under 10 µM. The same measure, in the same setting: to `CCN(CC)CCCNC(=O)c1cc2c(-c3ccccc3)nc(N)nc2s1` [Example 58] belongs over 10 µM; to `CCNC(=O)c1cc2c(-c3cc(OCCN4CCOCC4)c(Cl)cc3Cl)nc(N)nc2s1` [Example 236, 2-Amino-4-[2,4-dichloro-5-(2-morpholin-4-yl-ethoxy)-phenyl]-thieno[2,3-d]pyrimidine-6-carboxylic acid ethyl amide], under 10 µM; to `CCNC(=O)c1cc2c(-c3cc(CNCC4CCCO4)ccc3C)nc(N)nc2s1` (centres unmarked) [Example 223], under 10 µM. On to `CCNC(=O)c1cc2c(-c3c(C)cccc3C)nc(N)nc2s1` [Example 73], for which the IC50 was under 10 µM. The same measure, in the same setting: to `CCOC(=O)c1cc2c(-c3c(C)cc(C)cc3C)nc(N)nc2s1` [Example 77] belongs under 10 µM. The same measure, in the same setting: to `COC(=O)c1cc2c(Nc3ccccc3)nc(N)nc2s1` [Example 21] belongs over 10 µM; to `CCOC(=O)c1cc2c(-c3ccc(OCC)cc3)nc(N)nc2s1` [Example 8], under 10 µM; to `Nc1nc(-c2ccccc2)c2cc(C(=O)NCCO)sc2n1` [Example 72], under 10 µM.

For the compound `NC(=O)[C@H](Cc1cnc[nH]1)NC(=O)c1cc2c(-c3ccc(Cl)cc3Cl)nc(N)nc2s1` [Example 164], the IC50 is under 10 µM. `CCNC(=O)c1cc2c(-c3cc(CNCc4ccc(C)o4)ccc3C)nc(N)nc2s1` [Example 211]: the IC50 was under 10 µM.

Regarding `CCN(CC)CCOc1cc(-c2nc(N)nc3sc(C(=O)NC(CO)CO)cc23)c(Cl)cc1Cl` [Example 266], the IC50 was under 10 µM. The same measure, in the same setting: to `CCOC(=O)c1cc2c(Nc3ccccc3)nc(N)nc2s1` [Example 28] belongs over 10 µM. On the same count and under the same terms, with `CCOC(=O)c1cc2c(-c3ccc(CC)cc3Cl)nc(N)nc2s1` [Example 175] the figure was under 10 µM. Turning to `CCOC(=O)c1cc2c(-c3cccc4cccnc34)nc(N)nc2s1` [Example 100], the IC50 is over 10 µM.

Turning to `CCCCNCc1ccc(C)c(-c2nc(N)nc3sc(C(=O)NCC)cc23)c1` [Example 213], the IC50 is under 10 µM.

As to `COCCCNC(=O)c1cc2c(-c3ccc(Cl)cc3Cl)nc(N)nc2s1` [Example 126], the IC50 was under 10 µM.

Turning to `NC(=O)[C@H](CO)NC(=O)c1cc2c(-c3ccc(Cl)cc3Cl)nc(N)nc2s1` [Example 162], the half-inhibitory concentration (IC50) is under 10 µM.

Consider `CCOC(=O)c1cc2c(-c3ccccc3CC)nc(N)nc2s1` [Example 76], for which the IC50 was over 10 µM. The same measure, in the same setting: to `CCOC(=O)c1cc2c(C(=O)c3cc(C)ccc3C)nc(N)nc2s1` [Example 299] belongs under 10 µM. The same measure, in the same setting: with `CCOC(=O)c1cc2c(C(C)(O)c3ccc4c(c3)OCO4)nc(N)nc2s1` (centres unmarked) [Example 315, 2-Amino-4-(1-benzo[1,3]dioxol-5-yl-1-hydroxy-ethyl)-thieno[2,3-d]pyrimidine-6-carboxylic acid ethyl ester] the figure was under 10 µM.

On to `CCNC(=O)c1cc2c(-c3cc(CNCCO)c(C)cc3C)nc(N)nc2s1` [Example 234], for which the concentration for half-maximal inhibition (IC50) is under 10 µM. For the compound `CCCNCc1cc(-c2nc(N)nc3sc(C(=O)NCC)cc23)c(C)cc1C` [Example 231], the IC50 was under 10 µM. The same measure, in the same setting: with `CCOC(=O)c1cc2c(-c3ccc(C)cn3)nc(N)nc2s1` [Example 114] the figure was under 10 µM; with `CCOC(=O)c1cc2c(-c3ccc(Cl)cc3Cl)nc(N)nc2s1` [Example 89], under 10 µM. Still for that read-out and setting: to `Nc1nc(-c2ccc(Cl)cc2Cl)c2cc(C(=O)NCc3ccncc3)sc2n1` [Example 141] belongs under 10 µM; to `CCN(CC)CCOc1cc(-c2nc(N)nc3sc(C(=O)NCCO)cc23)c(Cl)cc1Cl` [Example 258], under 10 µM; to `CCOC(=O)c1cc2c(-c3cc(C=O)c(C)cc3C)nc(N)nc2s1` [Example 174], under 10 µM. The same measure, in the same setting: with `Nc1nc(-c2ccc(Cl)cc2Cl)c2cc(C(=O)NCCCn3ccnc3)sc2n1` [Example 146] the figure was under 10 µM.

Take `Cc1ccc(-c2nc(N)nc3sc(C(=O)NCc4ccccc4)cc23)c(C)c1` [Example 92]: the IC50 was under 10 µM. In the case of `CCNC(=O)c1cc2c(/C=C/c3ccccc3)nc(N)nc2s1` [Example 286], the 50% inhibitory concentration (IC50) is under 10 µM. Same read-out and setting: with `Nc1nc(-c2ccc(Cl)cc2Cl)c2cc(C(=O)NCC3CCCO3)sc2n1` (centres unmarked) [Example 132] the figure was under 10 µM. On to `CNC(=O)c1cc2c(NCc3ccccc3)nc(N)nc2s1` [Example 65], for which the IC50 is over 10 µM. Same read-out and setting: to `CCCNC(=O)c1cc2c(-c3ccccc3)nc(N)nc2s1` [Example 47] belongs under 10 µM. Still for that read-out and setting: to `Cc1ccc(-c2nc(N)nc3sc(C(=O)Nc4ccccc4)cc23)c(C)c1` [Example 91] belongs under 10 µM. Same read-out and setting: with `CCOC(=O)c1cc2c(/C=C/c3ccc(F)cc3)nc(N)nc2s1` [Example 282] the figure was under 10 µM; with `CCOC(=O)c1cc2c(-c3cccc(C)c3C)nc(N)nc2s1` [Example 87], under 10 µM; with `CCOC(=O)c1cc2c(-c3ccc(OC(C)C)cc3)nc(N)nc2s1` [Example 5], over 10 µM. Turning to `Nc1nc(-c2ccc(Cl)cc2Cl)c2cc(C(=O)N3CCC(N)C3)sc2n1` (centres unmarked) [Example 159], the IC50 is under 10 µM. The same measure, in the same setting: with `Cc1ccc(-c2nc(N)nc3sc(C(=O)NCCCO)cc23)c(C)c1` [Example 85] the figure was under 10 µM; with `CCOC(=O)c1cc2c(-c3cc(C)ccc3C)nc(N)nc2s1` [Example 88], under 10 µM. Same read-out and setting: to `CCNC(=O)c1cc2c(-c3cc(CNCCc4ccccc4)ccc3C)nc(N)nc2s1` [Example 215] belongs under 10 µM; to `Nc1nc(-c2ccc(Cl)cc2Cl)c2cc(C(=O)NCC(F)(F)F)sc2n1` [Example 134], under 10 µM. Same read-out and setting: with `CCNC(=O)c1cc2c(-c3ccc(Cl)cc3C)nc(N)nc2s1` [Example 151] the figure was under 10 µM; with `CC(C)(NC(=O)c1cc2c(-c3ccc(Cl)cc3Cl)nc(N)nc2s1)c1ccccc1` [Example 140], under 10 µM; with `C=C(c1ccc(Cl)cc1)c1nc(N)nc2sc(C(=O)OCC)cc12` [Example 280], under 10 µM. For the compound `Nc1nc(-c2ccc(Cl)cc2Cl)c2cc(C(=O)Nc3ccccc3)sc2n1` [Example 107], the IC50 is under 10 µM. Consider `Nc1nc(-c2ccc(Cl)cc2Cl)c2cc(C(=O)NCCCN3CCCC3)sc2n1` [Example 145], for which the concentration for half-maximal inhibition (IC50) was under 10 µM.

As a reminder, the IC50 is the point on the concentration scale where inhibition reaches its midpoint.
